Experimental data as given in patent US20250188136A1, “AV3 MUTANT POLYPEPTIDES FOR PEST CONTROL” (Vestaron Corporation, priority 2021, published 2025).
“Also recorded” adds a separate entry of the source. Ends that are not written are not given here.

What was measured:
[1] = tested on: houseflies; assay: Housefly injection assay (knock-down); type: in vivo, Musca domestica; conditions: for housefly knock-down / insecticidal activity relative to Av3b: knock-down at 5 hours post-injection; for Activity: knock-down at 5 hours post-injection normalized to Av3b, Yes = insecticidal activity maintained
Protocol: An exemplary housefly injection bioassay is as follows: conditioned media is serially diluted to generate full dose-response curves from the housefly injection bioassay. Before injection, adult houseflies (Musca domestica) are immobilized with CO2, and 12-18 mg houseflies are selected for injection. A microapplicator, loaded with a 1 cc syringe and 30-gauge needle, is used to inject 0.5 μL per fly, doses of serially diluted conditioned media samples into houseflies through the body wall of the dorsal thorax. The injected houseflies are placed into closed containers with moist filter paper and breathing holes on the lids, and they are examined by knock-down ratio or by mortality scoring at 24 hours post-injection. Normalized yields are calculated. Peptide yield means the peptide concentration in the conditioned media in units of mg/L. However, peptide yields are not always sufficient to accurately compare the strain production rate. […] A culture with a high cell density may produce a higher concentration of the peptide in the media, even though the peptide production rate of the strain is lower than another strain which has a higher production rate. Accordingly, the term “normalized yield” is created by dividing the peptide yield with the cell density in the corresponding culture and this allows a better comparison of the peptide production rate between strains. The cell density is represented by the light absorbance at 600 nm with a unit of “A” (Absorbance unit).
A housefly injection assay was performed to determine the activity of the new mutants. Adult houseflies were immobilized with CO2 for 10 minutes, and then transferred to a CO2 pan to keep immobilized. Flies with weight between 12-20 mg were picked for injection. The new mutants and Av3b control were diluted in water to proper doses for injection. Next, a 0.5 μL peptide solution was injected into each housefly at the dorsal thorax using a hand-microapplicator with 1 cc all-glass syringe with 30 gauge straight needle. The injected flies were then transferred to a 2 oz. transparent portion container with a wet #4 filter paper. Fly knock-down was assessed at 5-hours post-injection. The activity of a given new mutant was then normalized to the activity of the Av3b production strain (control), using the fly knock-down score at 5 hours.

[2] = Stability of purified peptide spiked into Av3b fermentation beer (rpHPLC); type: physicochemical; conditions: for resistance to fermentation beer protease cleavage compared to Av3b: spiked into Av3b fermentation beer pH 6.5, room temperature
Protocol: To determine the stability of the new mutants, Av3bM19, Av3bM23, Av3bM24, Av3bM25, Av3bM27, and Av3bM28 were purified and incubated in Av3b fermentation beer. The mutants were purified by cation-exchange chromatography using a GE SP-Sephadex C-25 column. The column was first calibrated with 30 mM sodium citrate buffer at pH 3.0. Then, the culture supernatant containing the secreted mutant peptide was loaded into the column to let the mutant peptide bind to the resin. The column was then washed with 30 mM sodium citrate buffer, pH 3.0, followed by washing with 30 mM sodium acetate, pH 4.0. Next, the bound mutant peptide was eluted by 1 M or 2 M NaCl with 30 mM sodium acetate, pH 4.0. The elution was then concentrated and buffer-exchanged to 30 mM sodium acetate, pH 4.0 using a 1 kD cutoff spin concentrator.
After purification, each of the mutants, Av3bM19, Av3bM23, Av3bM24, Av3bM25, Av3bM27, and Av3bM28, were evaluated for stability by spiking them into Av3b strain fermentation beer at pH 6.5. As a negative control, Av3b was evaluated in a pH 4.0 buffer. As a positive control, purified Av3b was evaluated by spiking into the same Av3b fermentation beer at pH 6.5. All stability experiments were performed at room temperature. […] The amount of peptide remaining relative to the beginning was determined by normalizing the peak area at different time to the one at 0 hour for each treatment. The degradation trend is visualized by the bar graph of the relative remaining peptide amount trend.

Sequence | housefly knock-down / insecticidal activity relative to Av3b [1] | Activity [1] | other results
KSCCPCYWGGCPWGQNCYPNGCSGPK (Av3bM23; VARIANT (1)..(26) Recombinant variant of Anemonia viridis Av3 peptide) | without a concomitant reduction in housefly knock-down activity; also recorded: insecticidal activity | Yes | 
SSCCPCYWGGCPWGQNCYPEGCSGPT (ends and bridges not checked; cysteine pairing not given here) [Av3bM33] |  | No | 
KSCCPCYWPGCPWGQNCYPEGCSGPK (ends and bridges not checked; cysteine pairing not given here) [Av3bM25] | without a concomitant reduction in housefly knock-down activity; also recorded: insecticidal activity | Yes | 
KSCCPCYWGGCPWGTTCYPNGCDGPK (Av3bM20; VARIANT (1)..(26) Recombinant variant of Anemonia viridis Av3 peptide) |  | No | 
KSCCPCYWGGCPWGQTCYPEGCSGPK (ends and bridges not checked; cysteine pairing not given here) [Av3bM22] |  | No | 
KSCCPCYWAGCPWGQNCYPEGCSGPK (ends and bridges not checked; cysteine pairing not given here) [Av3bM27] | behaved like Av3b; also recorded: insecticidal activity comparable to Av3b | Yes | 
KSCCPCYWPPCPWGQNCYPEGCSGPK (ends and bridges not checked; cysteine pairing not given here) [Av3bM26] |  | No | 
HSCCPCYWGGCPWGQNCYPEGCSGPK (ends and bridges not checked; cysteine pairing not given here) [Av3bM28] | without a concomitant reduction in housefly knock-down activity; also recorded: insecticidal activity | Yes | 
KSCCPCYWPGCPWGQNCYPEGCRGPD (ends and bridges not checked; cysteine pairing not given here) [Av3bM125] |  |  | half-degradation time ([2]; Av3b production fermentation beer pH 6.5, room temperature (Example 12, FIG. 39)): 369 h; resistance to fermentation beer protease cleavage compared to Av3b [2]: dramatically improved resistance to degradation
KSCCPCYWGGCPWGTNCYPEGCSGPK (ends and bridges not checked; cysteine pairing not given here) [Av3bM21] |  | No | 
KSCCPCYWGGCPWGQDCYPDGCDGPK (Av3bM19; VARIANT (1)..(26) Recombinant variant of Anemonia viridis Av3 peptide) | without a concomitant reduction in housefly knock-down activity; also recorded: insecticidal activity | Yes | half-degradation time ([2]; Av3b production fermentation beer pH 6.5, room temperature (Example 11, FIG. 37)): 666 h; peptide remaining ([2]; fermentation beer pH 6.5, room temperature, 248 hours, HPLC peak area relative to starting amount): 95%; resistance to fermentation beer protease cleavage compared to Av3b [2]: greater resistance to yeast fermentation beer protease cleavage; also recorded: improved resistance to fermentation beer cleavage; also recorded: resist the degradation in Av3b fermentation beer
SSCCPCYWGGCPWGQNCYPEGCSGPK (ends and bridges not checked; cysteine pairing not given here) [Av3bM32] |  | No | 
QSCCPCYWGGCPWGQNCYPEGCSGPH (ends and bridges not checked; cysteine pairing not given here) [Av3bM30] |  | No | 
TSCCPCYWGGCPWGQNCYPEGCSGPK (ends and bridges not checked; cysteine pairing not given here) [Av3bM31] |  | No | 
